Experimental data taken from PubChem BioAssay (NCI).
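Dose response: 5 concentrations. Exposure: 48 h. Format: 96-well plates. Endpoint: linear interpolation; highest concentration if not reached. Abbreviation: GI50, concentration required for 50% inhibition of growth. TGI marks complete inhibition of growth.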

Key:
Test in all cases: DTP human tumour cell line panel, 48 h
SF-539 CNS = tested on: SF-539 CNS
UACC-62 melanoma = tested on: UACC-62 melanoma
COLO 205 colon = tested on: COLO 205 colon
NCI-H460 lung = tested on: NCI-H460 lung
MDA-MB-231 breast = tested on: MDA-MB-231 breast
RXF 393 renal = tested on: RXF 393 renal
MCF7 breast = tested on: MCF7 breast
NCI/ADR-RES ovarian = tested on: NCI/ADR-RES ovarian
A498 renal = tested on: A498 renal
OVCAR-3 ovarian = tested on: OVCAR-3 ovarian
SK-MEL-5 melanoma = tested on: SK-MEL-5 melanoma
786-0 renal = tested on: 786-0 renal
RPMI-8226 leukemia = tested on: RPMI-8226 leukemia
HCT-116 colon = tested on: HCT-116 colon
OVCAR-8 ovarian = tested on: OVCAR-8 ovarian
M14 melanoma = tested on: M14 melanoma
ACHN renal = tested on: ACHN renal
SN12C renal = tested on: SN12C renal
KM12 colon = tested on: KM12 colon
SW-620 colon = tested on: SW-620 colon
MOLT-4 leukemia = tested on: MOLT-4 leukemia
DU-145 prostate = tested on: DU-145 prostate
SK-MEL-28 melanoma = tested on: SK-MEL-28 melanoma
OVCAR-4 ovarian = tested on: OVCAR-4 ovarian
MALME-3M melanoma = tested on: MALME-3M melanoma
T-47D breast = tested on: T-47D breast
SK-MEL-2 melanoma = tested on: SK-MEL-2 melanoma
TK-10 renal = tested on: TK-10 renal
HOP-62 NSCLC = tested on: HOP-62 NSCLC
UO-31 renal = tested on: UO-31 renal
HT29 colon = tested on: HT29 colon
A549 NSCLC = tested on: A549 NSCLC
SF-268 CNS = tested on: SF-268 CNS
SNB-19 CNS = tested on: SNB-19 CNS
SF-295 CNS = tested on: SF-295 CNS
SK-OV-3 ovarian = tested on: SK-OV-3 ovarian
NCI-H522 lung = tested on: NCI-H522 lung
PC-3 prostate = tested on: PC-3 prostate
CAKI-1 renal = tested on: CAKI-1 renal
U251 CNS = tested on: U251 CNS
MDA-MB-435 = tested on: MDA-MB-435
OVCAR-5 ovarian = tested on: OVCAR-5 ovarian
MDA-N = tested on: MDA-N
NCI-H23 lung = tested on: NCI-H23 lung
K-562 leukemia = tested on: K-562 leukemia
IGROV1 ovarian = tested on: IGROV1 ovarian
SR leukemia = tested on: SR leukemia
HOP-92 NSCLC = tested on: HOP-92 NSCLC
UACC-257 melanoma = tested on: UACC-257 melanoma
HCT-15 colon = tested on: HCT-15 colon
SNB-75 CNS = tested on: SNB-75 CNS
NCI-H226 lung = tested on: NCI-H226 lung
HS 578T breast = tested on: HS 578T breast
CCRF-CEM leukemia = tested on: CCRF-CEM leukemia
LOX IMVI melanoma = tested on: LOX IMVI melanoma
HCC-2998 colon = tested on: HCC-2998 colon
BT-549 breast = tested on: BT-549 breast
HL-60(TB) leukemia = tested on: HL-60(TB) leukemia

## CNC(=O)CCCNC(=O)CCCCC(=O)N(C)C
SF-539 CNS
  TGI: > 100 µM
UACC-62 melanoma
  TGI: > 100 µM
COLO 205 colon
  TGI: > 100 µM
NCI-H460 lung
  TGI: > 100 µM
MDA-MB-231 breast
  TGI: > 100 µM
RXF 393 renal
  TGI: > 100 µM
MCF7 breast
  TGI: > 100 µM
NCI/ADR-RES ovarian
  TGI: > 100 µM
A498 renal
  TGI: > 100 µM
OVCAR-3 ovarian
  TGI: > 100 µM
SK-MEL-5 melanoma
  TGI: > 100 µM
786-0 renal
  TGI: > 100 µM
RPMI-8226 leukemia
  TGI: > 100 µM
HCT-116 colon
  TGI: > 100 µM
OVCAR-8 ovarian
  TGI: > 100 µM
M14 melanoma
  TGI: > 100 µM
ACHN renal
  TGI: > 100 µM
SN12C renal
  TGI: > 100 µM
KM12 colon
  TGI: > 100 µM
SW-620 colon
  TGI: > 100 µM
MOLT-4 leukemia
  TGI: > 100 µM
DU-145 prostate
  TGI: > 100 µM
SK-MEL-28 melanoma
  TGI: > 100 µM
OVCAR-4 ovarian
  TGI: > 100 µM
MALME-3M melanoma
  TGI: > 100 µM
T-47D breast
  TGI: > 100 µM
SK-MEL-2 melanoma
  TGI: > 100 µM
TK-10 renal
  TGI: > 100 µM
HOP-62 NSCLC
  TGI: > 100 µM
UO-31 renal
  TGI: > 100 µM
HT29 colon
  TGI: > 100 µM
A549 NSCLC
  TGI: > 100 µM
SF-268 CNS
  TGI: > 100 µM
SNB-19 CNS
  TGI: > 100 µM
SF-295 CNS
  TGI: > 100 µM
SK-OV-3 ovarian
  TGI: > 100 µM
NCI-H522 lung
  TGI: > 100 µM
PC-3 prostate
  TGI: > 100 µM
CAKI-1 renal
  TGI: > 100 µM
U251 CNS
  TGI: > 100 µM
MDA-MB-435
  TGI: > 100 µM
OVCAR-5 ovarian
  TGI: > 100 µM
MDA-N
  TGI: > 100 µM
NCI-H23 lung
  TGI: > 100 µM
K-562 leukemia
  TGI: > 100 µM

## CC(C)(O)CCc1cccc(C(=O)c2cnn(-c3ccc(F)cc3)c2N)c1
SF-539 CNS
  GI50: > 25 µM
  TGI: > 25 µM
IGROV1 ovarian
  GI50: > 25 µM
  TGI: > 25 µM
UACC-62 melanoma
  GI50: > 25 µM
  TGI: > 25 µM
COLO 205 colon
  GI50: > 25 µM
  TGI: > 25 µM
SR leukemia
  GI50: > 25 µM
  TGI: > 25 µM
NCI-H460 lung
  GI50: > 25 µM
  TGI: > 25 µM
MDA-MB-231 breast
  GI50: > 25 µM
  TGI: > 25 µM
RXF 393 renal
  GI50: > 25 µM
  TGI: > 25 µM
MCF7 breast
  GI50: > 25 µM
  TGI: > 25 µM
NCI/ADR-RES ovarian
  GI50: > 21.9 µM
  TGI: > 25 µM
HOP-92 NSCLC
  GI50: 8.7 µM
  TGI: > 25 µM
A498 renal
  GI50: > 18.4 µM
  TGI: > 25 µM
OVCAR-3 ovarian
  GI50: > 25 µM
  TGI: > 25 µM
SK-MEL-5 melanoma
  GI50: 13.5 µM
  TGI: > 25 µM
786-0 renal
  GI50: > 25 µM
  TGI: > 25 µM
RPMI-8226 leukemia
  GI50: > 25 µM
  TGI: > 25 µM
HCT-116 colon
  GI50: > 25 µM
  TGI: > 25 µM
UACC-257 melanoma
  GI50: > 25 µM
  TGI: > 25 µM
HCT-15 colon
  GI50: > 25 µM
  TGI: > 25 µM
SNB-75 CNS
  GI50: > 25 µM
  TGI: > 25 µM
NCI-H226 lung
  GI50: > 19.7 µM
  TGI: > 25 µM
OVCAR-8 ovarian
  GI50: > 25 µM
  TGI: > 25 µM
M14 melanoma
  GI50: > 25 µM
  TGI: > 25 µM
HS 578T breast
  GI50: > 25 µM
  TGI: > 25 µM
ACHN renal
  GI50: > 25 µM
  TGI: > 25 µM
SN12C renal
  GI50: > 25 µM
  TGI: > 25 µM
KM12 colon
  GI50: > 25 µM
  TGI: > 25 µM
CCRF-CEM leukemia
  GI50: > 25 µM
  TGI: > 25 µM
LOX IMVI melanoma
  GI50: > 25 µM
  TGI: > 25 µM
SW-620 colon
  GI50: > 25 µM
  TGI: > 25 µM
MOLT-4 leukemia
  GI50: > 25 µM
  TGI: > 25 µM
DU-145 prostate
  GI50: > 25 µM
  TGI: > 25 µM
SK-MEL-28 melanoma
  GI50: > 25 µM
  TGI: > 25 µM
HCC-2998 colon
  GI50: > 25 µM
  TGI: > 25 µM
OVCAR-4 ovarian
  GI50: > 23.3 µM
  TGI: > 25 µM
MALME-3M melanoma
  GI50: > 25 µM
  TGI: > 25 µM
T-47D breast
  GI50: 8.17 µM
  TGI: > 25 µM
BT-549 breast
  GI50: > 25 µM
  TGI: > 25 µM
SK-MEL-2 melanoma
  GI50: > 25 µM
  TGI: > 25 µM
TK-10 renal
  GI50: > 25 µM
  TGI: > 25 µM
HOP-62 NSCLC
  GI50: > 25 µM
  TGI: > 25 µM
UO-31 renal
  GI50: > 25 µM
  TGI: > 25 µM
HT29 colon
  GI50: > 25 µM
  TGI: > 25 µM
A549 NSCLC
  GI50: > 25 µM
  TGI: > 25 µM
SF-268 CNS
  GI50: > 25 µM
  TGI: > 25 µM
SNB-19 CNS
  GI50: > 25 µM
  TGI: > 25 µM
SF-295 CNS
  GI50: > 25 µM
  TGI: > 25 µM
SK-OV-3 ovarian
  GI50: > 25 µM
  TGI: > 25 µM
NCI-H522 lung
  GI50: > 25 µM
  TGI: > 25 µM
PC-3 prostate
  GI50: > 25 µM
  TGI: > 25 µM
HL-60(TB) leukemia
  GI50: > 25 µM
  TGI: > 25 µM
CAKI-1 renal
  GI50: > 25 µM
  TGI: > 25 µM
U251 CNS
  GI50: > 25 µM
  TGI: > 25 µM
MDA-MB-435
  GI50: > 25 µM
  TGI: > 25 µM
OVCAR-5 ovarian
  GI50: > 25 µM
  TGI: > 25 µM
NCI-H23 lung
  GI50: > 25 µM
  TGI: > 25 µM
K-562 leukemia
  GI50: > 25 µM
  TGI: > 25 µM
